Experimental findings from patent US20140206681A1, “BTK INHIBITORS” (priority 2013, published 2014) are described below.

pIC50: −log10 of the molar value.

One assay deals with HeLa cells. The assay is described as follows: [3H]Adenosine uptake functional cellular assay. To be noted: Homo sapiens, HeLa, accumulation of [3H]adenosine into HeLa cells; compound range 10 μM to […]; read-out: Adenosine uptake inhibition IC50. The class given is cell-based. An outline of the steps:
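Inhibition of adenosine uptake was measured in HeLa cells (ATCC CCL-2) by following accumulation of tritiated adenosine. Cells were kept overnight at 37° C. with 5% (v/v) CO2, then switched to 40 μL HBSS plus 5% (v/v) FBS. 20 μL of 500 nM [3H]adenosine was added, and uptake was counted on a Topcount NXT reader.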

Assay [1] addresses T1, BTK enzyme (recombinant full-length BTK, hBTK) (Homo sapiens, UniProt Q06187).
T1 construct: recombinant protein from baculovirus-transfected Sf9 cells: full-length BTK, 6HIS-tag cleaved; 6HIS (cleaved yes); made in house; host or cells: baculovirus-transfected Sf9 cells
The assay is described as follows: BTK enzyme activity assay, LANCE TR-FRET. Type of assay: biochemical. As to conditions: 50 pM hBTK, 2 μM biotin-A5-peptide, 25 μM ATP; 60 min compound & enzyme incubation; read-out: IC50 BTK activity value.

T1 sequence (Q06187 whole entry): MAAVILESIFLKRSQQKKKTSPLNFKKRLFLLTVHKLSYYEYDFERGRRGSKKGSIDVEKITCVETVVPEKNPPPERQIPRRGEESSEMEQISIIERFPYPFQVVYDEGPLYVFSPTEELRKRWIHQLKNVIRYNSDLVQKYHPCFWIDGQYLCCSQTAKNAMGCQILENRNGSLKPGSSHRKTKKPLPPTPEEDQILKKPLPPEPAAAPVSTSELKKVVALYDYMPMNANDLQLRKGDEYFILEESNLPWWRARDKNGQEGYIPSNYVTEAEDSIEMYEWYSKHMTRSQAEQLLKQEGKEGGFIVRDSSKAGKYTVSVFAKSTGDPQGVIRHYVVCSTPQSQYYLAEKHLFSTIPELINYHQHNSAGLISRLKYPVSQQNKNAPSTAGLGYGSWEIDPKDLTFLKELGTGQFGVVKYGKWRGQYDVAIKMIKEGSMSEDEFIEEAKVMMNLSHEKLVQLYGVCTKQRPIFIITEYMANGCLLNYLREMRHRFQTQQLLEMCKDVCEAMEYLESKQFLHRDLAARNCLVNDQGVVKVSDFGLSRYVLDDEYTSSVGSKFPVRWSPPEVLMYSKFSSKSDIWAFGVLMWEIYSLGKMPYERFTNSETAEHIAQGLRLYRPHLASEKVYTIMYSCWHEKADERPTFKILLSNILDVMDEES

In the case of `CN1CC[C@H]2CC[C@@H](c3nc(-c4ccc(C(=O)Nc5cc(C(F)(F)F)ccn5)cc4)c4c(N)nccn34)CN2C1=O` [Example 111, 4-{8-amino-3-[(4aR,7R)-2-methyl-1-oxooctahydro-1H-pyrido[1,2-c]pyrimidin-7-yl]imidazo[1,5-a]pyrazin-1-yl}-N-[4-(trifluoromethyl)pyridin-2-yl]benzamide], the pIC50 is 6.34 with HeLa cells and 8.28 in assay [1].

Turning to `Nc1nccn2c([C@@H]3CC[C@H]4CCC(=O)N4C3)nc(-c3ccc(C(=O)Nc4cc(C(F)(F)F)ccn4)cc3Cl)c12` [Example 112, 4-{8-amino-3-[(6R,8aS)-3-oxooctahydroindolizin-6-yl]imidazo[1,5-a]pyrazin-1-yl}-3-chloro-N-[4-(trifluoromethyl)pyridin-2-yl]benzamide], the figures for the pIC50 (in the assay with HeLa cells; in assay [1]) were 6.38 and 9.24, respectively.

With `CC(F)(F)c1cc(C(=O)Nc2cc(C(F)(F)F)ccn2)ccc1-c1nc([C@@H]2CC[C@H]3CCC(=O)N3C2)n2ccnc(N)c12` [Example 114, 4-{8-amino-3-[(6R,8aS)-3-oxooctahydroindolizin-6-yl]imidazo[1,5-a]pyrazin-1-yl}-3-(1,1-difluoroethyl)-N-[4-(trifluoromethyl)pyridin-2-yl]benzamide], the figures for the pIC50 (in the assay on HeLa cells; in assay [1]) were 6.23 and 6.08, respectively.

Regarding `CCOc1cc(C(=O)Nc2cc(C(F)(F)F)n(C)n2)c(F)cc1-c1nc([C@@H]2CC[C@H]3CCC(=O)N3C2)n2c(Cl)cnc(N)c12` [Example 115, 4-(8-amino-5-chloro-3-((6R,8aS)-3-oxooctahydroindolizin-6-yl)imidazo[1,5-a]pyrazin-1-yl)-5-ethoxy-2-fluoro-N-(1-methyl-5-(trifluoromethyl)-1H-pyrazol-3-yl)benzamide], the pIC50 in the assay with HeLa cells was 5.77; in assay [1], 9.17.

Turning to `N#Cc1cnc(NC(=O)c2ccc(-c3nc([C@@H]4CC[C@H]5CCC(=O)N5C4)n4ccnc(N)c34)cc2)cc1C(F)(F)F` [Example 117, 4-{8-amino-3-[(6R,8aS)-3-oxooctahydroindolizin-6-yl]imidazo[1,5-a]pyrazin-1-yl}-N-[5-cyano-4-(trifluoromethyl)pyridin-2-yl]benzamide], the pIC50 was 6.99 in the assay on HeLa cells and 8.68 in assay [1].

As for `Nc1nccn2c([C@@H]3CC[C@H]4CCC(=O)N4C3)nc(-c3ccc(C(=O)Nc4cc(C(F)(F)F)ccn4)cc3O)c12` [Example 118, 4-{8-amino-3-[(6R,8aS)-3-oxooctahydroindolizin-6-yl]imidazo[1,5-a]pyrazin-1-yl}-3-hydroxy-N-[4-(trifluoromethyl)pyridin-2-yl]benzamide], the pIC50 was 6.08 with HeLa cells and 9.24 in assay [1].

Regarding `Nc1nccn2c([C@@H]3CC[C@H]4CCC(=O)N4C3)nc(-c3ccc(C(=O)Nc4cc(C(F)(F)F)ccn4)nc3)c12` [Example 119, 5-{8-amino-3-[(6R,8aS)-3-oxooctahydroindolizin-6-yl]imidazo[1,5-a]pyrazin-1-yl}-N-[4-(trifluoromethyl)pyridin-2-yl]pyridine-2-carboxamide], the pIC50 was 6.35 in the assay on HeLa cells and 8.48 in assay [1].

`Cc1cc(C(F)(F)F)cc(NC(=O)c2ccc(-c3nc([C@@H]4CC[C@H]5CCC(=O)N5C4)n4ccnc(N)c34)cc2)n1` [Example 120, 4-{8-amino-3-[(6R,8aS)-3-oxooctahydroindolizin-6-yl]imidazo[1,5-a]pyrazin-1-yl}-N-[6-methyl-4-(trifluoromethyl)pyridin-2-yl]benzamide]: the pIC50 is 6.93 in the assay on HeLa cells and 8.32 in assay [1].

Take `N#Cc1cc(C(=O)Nc2cc(C(F)(F)F)ccn2)ccc1-c1nc([C@@H]2CC[C@H]3CCC(=O)N3C2)n2ccnc(N)c12` [Example 123, 4-{8-amino-3-[(6R,8aS)-3-oxooctahydroindolizin-6-yl]imidazo[1,5-a]pyrazin-1-yl}-3-cyano-N-[4-(trifluoromethyl)pyridin-2-yl]benzamide]: the pIC50 in the assay with HeLa cells was 6.14; in assay [1], 8.20.

Consider `NC(=O)c1cc(C(=O)Nc2cc(C(F)(F)F)ccn2)ccc1-c1nc([C@@H]2CC[C@H]3CCC(=O)N3C2)n2ccnc(N)c12` [Example 124, 4-{8-amino-3-[(6R,8aS)-3-oxooctahydroindolizin-6-yl]imidazo[1,5-a]pyrazin-1-yl}-N~1~-[4-(trifluoromethyl)pyridin-2-yl]benzene-1,3-dicarboxamide], for which the pIC50 in the assay with HeLa cells is ≤ 5.00; in assay [1], 6.46.

For the compound `CC(C)c1cc(C(F)(F)F)cc(NC(=O)c2ccc(-c3nc([C@@H]4CC[C@H]5CCC(=O)N5C4)n4ccnc(N)c34)cc2)n1` [Example 125, 4-{8-amino-3-[(6R,8aS)-3-oxooctahydroindolizin-6-yl]imidazo[1,5-a]pyrazin-1-yl}-N-[6-(1-methylethyl)-4-(trifluoromethyl)pyridin-2-yl]benzamide], the pIC50 was 6.19 in the assay on HeLa cells and 6.56 in assay [1].

On to `Nc1nccn2c([C@@H]3CC[C@H]4CCC(=O)N4C3)nc(-c3ccc(C(=O)Nc4cc(C(F)(F)F)ccn4)cc3C(=O)O)c12` [Example 127, 2-{8-amino-3-[(6R,8aS)-3-oxooctahydroindolizin-6-yl]imidazo[1,5-a]pyrazin-1-yl}-5-{[4-(trifluoromethyl)pyridin-2-yl]carbamoyl}benzoic acid], for which the pIC50 in the assay on HeLa cells is 5.29; in assay [1] it was 7.08.

On to `CCOc1cc(C(=O)Nc2cc(C(F)(F)F)ccn2)ccc1-c1nc([C@@H]2CC[C@H]3CCC(=O)N3C2)n2c(Cl)cnc(N)c12` [Example 128, 4-{8-amino-5-chloro-3-[(6R,8aS)-3-oxooctahydroindolizin-6-yl]imidazo[1,5-a]pyrazin-1-yl}-3-ethoxy-N-[4-(trifluoromethyl)pyridin-2-yl]benzamide], for which the pIC50 is 5.94 with HeLa cells and 9.57 in assay [1].

Regarding `COc1cccc(NC(=O)c2ccc(-c3nc([C@@H]4CC[C@H]5CCC(=O)N5C4)n4ccnc(N)c34)cc2)n1` [Example 129, 4-{8-amino-3-[(6R,8aS)-3-oxooctahydroindolizin-6-yl]imidazo[1,5-a]pyrazin-1-yl}-N-(6-methoxypyridin-2-yl)benzamide], the figures for the pIC50 (in the assay on HeLa cells; in assay [1]) were 7.41 and 7.09, respectively.

For the compound `COc1cc(C(=O)Nc2cc(C(F)(F)F)ccn2)c(F)cc1-c1nc([C@@H]2CC[C@H]3CCC(=O)N3C2)n2ccnc(N)c12` [Example 130, 4-{8-amino-3-[(6R,8aS)-3-oxooctahydroindolizin-6-yl]imidazo[1,5-a]pyrazin-1-yl}-2-fluoro-5-methoxy-N-[4-(trifluoromethyl)pyridin-2-yl]benzamide], the results for the pIC50 (in the assay with HeLa cells; in assay [1]) were 6.14 and 8.60, respectively.

For `CCOc1cc(C(=O)Nc2cc(C(F)(F)F)n(C)n2)ccc1-c1nc([C@@H]2CC[C@H]3CCC(=O)N3C2)n2ccnc(N)c12` [Example 131, 4-{8-amino-3-[(6R,8aS)-3-oxooctahydroindolizin-6-yl]imidazo[1,5-a]pyrazin-1-yl}-3-ethoxy-N-[1-methyl-5-(trifluoromethyl)-1H-pyrazol-3-yl]benzamide], the pIC50 in the assay on HeLa cells was 5.56; in assay [1] it was 9.13.

With `COc1cc(C(=O)Nc2cc(C(F)(F)F)ccn2)c(F)cc1-c1nc([C@@H]2CC[C@H]3CCC(=O)N3C2)n2c(Cl)cnc(N)c12` [Example 132, 4-{8-amino-5-chloro-3-[(6R,8aS)-3-oxooctahydroindolizin-6-yl]imidazo[1,5-a]pyrazin-1-yl}-2-fluoro-5-methoxy-N-[4-(trifluoromethyl)pyridin-2-yl]benzamide], the pIC50 was 5.83 in the assay with HeLa cells and 8.92 in assay [1].

Turning to `COc1cc(C(=O)Nc2cc(C(F)(F)F)ccn2)cc(F)c1-c1nc([C@@H]2CC[C@H]3CCC(=O)N3C2)n2ccnc(N)c12` [Example 134, 4-{8-amino-3-[(6R,8aS)-3-oxooctahydroindolizin-6-yl]imidazo[1,5-a]pyrazin-1-yl}-3-fluoro-5-methoxy-N-[4-(trifluoromethyl)pyridin-2-yl]benzamide], the values for the pIC50 (in the assay with HeLa cells; in assay [1]) were 5.80 and 9.55, respectively.

`CCOc1cc(C(=O)Nc2cc(C(F)(F)F)n(C)n2)ccc1-c1nc([C@@H]2CC[C@H]3CCC(=O)N3C2)n2c(Cl)cnc(N)c12` [Example 135, 4-{8-amino-5-chloro-3-[(6R,8aS)-3-oxooctahydroindolizin-6-yl]imidazo[1,5-a]pyrazin-1-yl}-3-ethoxy-N-[1-methyl-5-(trifluoromethyl)-1H-pyrazol-3-yl]benzamide]: the pIC50 in the assay with HeLa cells is 5.67; in assay [1], 9.64.

Turning to `CCOc1cc(C(=O)Nc2cc(C3CC3)ccn2)c(F)cc1-c1nc([C@@H]2CC[C@H]3CCC(=O)N3C2)n2c(Cl)cnc(N)c12` [Example 136, 4-{8-amino-5-chloro-3-[(6R,8aS)-3-oxooctahydroindolizin-6-yl]imidazo[1,5-a]pyrazin-1-yl}-N-(4-cyclopropylpyridin-2-yl)-5-ethoxy-2-fluorobenzamide], the pIC50 in the assay on HeLa cells is 5.84; in assay [1], 9.11.

On to `CCOc1cc(C(=O)Nc2cc(C3CC3)ccn2)c(F)cc1-c1nc([C@@H]2CC[C@H]3CCC(=O)N3C2)n2ccnc(N)c12` [Example 137, 4-{8-amino-3-[(6R,8aS)-3-oxooctahydroindolizin-6-yl]imidazo[1,5-a]pyrazin-1-yl}-N-(4-cyclopropylpyridin-2-yl)-5-ethoxy-2-fluorobenzamide], for which the pIC50 in the assay on HeLa cells is 5.92; in assay [1] it was 8.70.

On to `Nc1nccn2c([C@@H]3CC[C@H]4CCC(=O)N4C3)nc(-c3ccc(C(=O)Nc4cc(C(F)(F)F)ccn4)cc3OC3CCCCC3)c12` [Example 138, 4-{8-amino-3-[(6R,8aS)-3-oxooctahydroindolizin-6-yl]imidazo[1,5-a]pyrazin-1-yl}-3-(cyclohexyloxy)-N-[4-(trifluoromethyl)pyridin-2-yl]benzamide], for which the pIC50 with HeLa cells was 5.86; in assay [1], 6.87.
